{"source": "PubChem BioAssay (NCI)", "note": "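All cell lines were grown in 96-well plates and treated with compound for 48 hours. Here, GI50 denotes the concentration required for 50% inhibition of growth. TGI: concentration producing complete growth inhibition.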", "data": [{"system": "CAKI-1 renal", "test": "growth of human tumour cells (NCI), 48 h", "units": {"GI50": "µM", "TGI": "µM"}, "values": [{"smiles": "COc1cnc2c(c1)C(=O)c1c-2n(CCCN2CCOCC2)c(=O)c2cc(Cl)ccc12", "GI50": 0.342, "TGI": "> 100"}]}, {"system": "HL-60(TB) leukemia", "test": "growth of human tumour cells (NCI), 48 h", "units": {"TGI": "µM", "GI50": "µM"}, "values": [{"smiles": "COc1cc2c(cc1OC)C1C3CCCCC3CCN1CC2", "note": "(stereo unspecified)", "TGI": "> 100"}, {"smiles": "NC(=O)c1c(NC(=O)c2ccccc2)sc2c1CCC(=O)C2", "GI50": 0.378, "TGI": 3.57}, {"smiles": "COc1cc(O)c2c(c1)C(=O)c1cc3c(c(O)c1C2=O)C(OC1OC(C)C(OC)C(O)C1OC)C(OC)C(C)(O)C3=O", "note": "(stereo unspecified)", "TGI": "> 100"}, {"smiles": "COc1cnc2c(c1)C(=O)c1c-2n(CCCN2CCOCC2)c(=O)c2cc(Cl)ccc12", "GI50": 0.455, "TGI": "> 100"}, {"smiles": "Cc1cc(N[C@@H]2CCC[C@H](Nc3ccnc4cc(Cl)ccc34)C2)nc(N2CCCCCC2)n1", "GI50": 1.7, "TGI": 3.47}]}, {"system": "786-0 renal", "test": "growth of human tumour cells (NCI), 48 h", "units": {"TGI": "µM", "GI50": "µM"}, "values": [{"smiles": "COc1cc2c(cc1OC)C1C3CCCCC3CCN1CC2", "note": "(stereo unspecified)", "TGI": "> 100"}, {"smiles": "COc1cc(O)c2c(c1)C(=O)c1cc3c(c(O)c1C2=O)C(OC1OC(C)C(OC)C(O)C1OC)C(OC)C(C)(O)C3=O", "note": "(stereo unspecified)", "TGI": 45.5}, {"smiles": "Cc1cc(N[C@@H]2CCC[C@H](Nc3ccnc4cc(Cl)ccc34)C2)nc(N2CCCCCC2)n1", "GI50": 1.47, "TGI": 2.9}]}, {"system": "ACHN renal", "test": "growth of human tumour cells (NCI), 48 h", "units": {"TGI": "µM", "GI50": "µM"}, "values": [{"smiles": "COc1cc2c(cc1OC)C1C3CCCCC3CCN1CC2", "note": "(stereo unspecified)", "TGI": "> 100"}, {"smiles": "NC(=O)c1c(NC(=O)c2ccccc2)sc2c1CCC(=O)C2", "GI50": 0.698, "TGI": 2.48}, {"smiles": "COc1cc(O)c2c(c1)C(=O)c1cc3c(c(O)c1C2=O)C(OC1OC(C)C(OC)C(O)C1OC)C(OC)C(C)(O)C3=O", "note": "(stereo unspecified)", "TGI": 12.8}, {"smiles": "COc1cnc2c(c1)C(=O)c1c-2n(CCCN2CCOCC2)c(=O)c2cc(Cl)ccc12", "GI50": 0.332, "TGI": "> 100"}, {"smiles": "Cc1cc(N[C@@H]2CCC[C@H](Nc3ccnc4cc(Cl)ccc34)C2)nc(N2CCCCCC2)n1", "GI50": 1.83, "TGI": 3.82}]}, {"system": "OVCAR-8 ovarian", "test": "growth of human tumour cells (NCI), 48 h", "units": {"TGI": "µM", "GI50": "µM"}, "values": [{"smiles": "COc1cc2c(cc1OC)C1C3CCCCC3CCN1CC2", "note": "(stereo unspecified)", "TGI": "> 100"}, {"smiles": "NC(=O)c1c(NC(=O)c2ccccc2)sc2c1CCC(=O)C2", "GI50": 1.33, "TGI": "> 100"}, {"smiles": "COc1cc(O)c2c(c1)C(=O)c1cc3c(c(O)c1C2=O)C(OC1OC(C)C(OC)C(O)C1OC)C(OC)C(C)(O)C3=O", "note": "(stereo unspecified)", "TGI": 10.8}, {"smiles": "COc1cnc2c(c1)C(=O)c1c-2n(CCCN2CCOCC2)c(=O)c2cc(Cl)ccc12", "GI50": 0.578, "TGI": "> 100"}, {"smiles": "Cc1cc(N[C@@H]2CCC[C@H](Nc3ccnc4cc(Cl)ccc34)C2)nc(N2CCCCCC2)n1", "GI50": 2.51, "TGI": 6.1}]}, {"system": "HCC-2998 colon", "test": "growth of human tumour cells (NCI), 48 h", "units": {"TGI": "µM", "GI50": "µM"}, "values": [{"smiles": "COc1cc2c(cc1OC)C1C3CCCCC3CCN1CC2", "note": "(stereo unspecified)", "TGI": "> 100"}, {"smiles": "NC(=O)c1c(NC(=O)c2ccccc2)sc2c1CCC(=O)C2", "GI50": 2.1, "TGI": 11}, {"smiles": "COc1cc(O)c2c(c1)C(=O)c1cc3c(c(O)c1C2=O)C(OC1OC(C)C(OC)C(O)C1OC)C(OC)C(C)(O)C3=O", "note": "(stereo unspecified)", "TGI": 17.4}, {"smiles": "COc1cnc2c(c1)C(=O)c1c-2n(CCCN2CCOCC2)c(=O)c2cc(Cl)ccc12", "GI50": "> 100", "TGI": "> 100"}, {"smiles": "Cc1cc(N[C@@H]2CCC[C@H](Nc3ccnc4cc(Cl)ccc34)C2)nc(N2CCCCCC2)n1", "GI50": 1.72, "TGI": 3.29}]}, {"system": "HOP-92 NSCLC", "test": "growth of human tumour cells (NCI), 48 h", "units": {"TGI": "µM", "GI50": "µM"}, "values": [{"smiles": "COc1cc2c(cc1OC)C1C3CCCCC3CCN1CC2", "note": "(stereo unspecified)", "TGI": "> 100"}, {"smiles": "NC(=O)c1c(NC(=O)c2ccccc2)sc2c1CCC(=O)C2", "GI50": 1.42, "TGI": 4.99}, {"smiles": "COc1cnc2c(c1)C(=O)c1c-2n(CCCN2CCOCC2)c(=O)c2cc(Cl)ccc12", "GI50": 32.7, "TGI": "> 100"}, {"smiles": "Cc1cc(N[C@@H]2CCC[C@H](Nc3ccnc4cc(Cl)ccc34)C2)nc(N2CCCCCC2)n1", "GI50": 1.62, "TGI": 3.36}]}, {"system": "SK-MEL-2 melanoma", "test": "growth of human tumour cells (NCI), 48 h", "units": {"TGI": "µM", "GI50": "µM"}, "values": [{"smiles": "COc1cc2c(cc1OC)C1C3CCCCC3CCN1CC2", "note": "(stereo unspecified)", "TGI": "> 100"}, {"smiles": "NC(=O)c1c(NC(=O)c2ccccc2)sc2c1CCC(=O)C2", "GI50": 2.4, "TGI": 7.21}, {"smiles": "COc1cc(O)c2c(c1)C(=O)c1cc3c(c(O)c1C2=O)C(OC1OC(C)C(OC)C(O)C1OC)C(OC)C(C)(O)C3=O", "note": "(stereo unspecified)", "TGI": 23.5}, {"smiles": "COc1cnc2c(c1)C(=O)c1c-2n(CCCN2CCOCC2)c(=O)c2cc(Cl)ccc12", "GI50": 30.5, "TGI": "> 100"}]}]}
